Reference: ChEMBL document CHEMBL5370681, “Lipid Tales: Optimizing Arylomycin Membrane Anchors” (ACS Med Chem Lett, 2023)
Values after ≈ are worked out from the molar mass of the structure shown.

Key:
[1] = biological target: Signal peptidase I (Escherichia coli K-12) (UniProt P00803); test: Inhibition of LepB in Escherichia coli IMP assessed as antibacterial activity by measuring reduction in bacterial growth incubated for 18 hrs by two-fold serial dilution method
Escherichia coli [2] = test: Antibacterial activity against Escherichia coli 25922 incubated for 18 hrs by two-fold serial dilution method; type: functional
Escherichia coli [3] = test: Antibacterial activity against Escherichia coli 25922 incubated for 18 hrs in presence of 50% mouse serum by two-fold serial dilution method; type: functional
[4] = Unbound fraction in human plasma at 5 uM measured after 24 hrs by LC-MS/MS analysis; type: ADME, cell-free

Chain of Signal peptidase I (Escherichia coli K-12) (P00803 whole entry): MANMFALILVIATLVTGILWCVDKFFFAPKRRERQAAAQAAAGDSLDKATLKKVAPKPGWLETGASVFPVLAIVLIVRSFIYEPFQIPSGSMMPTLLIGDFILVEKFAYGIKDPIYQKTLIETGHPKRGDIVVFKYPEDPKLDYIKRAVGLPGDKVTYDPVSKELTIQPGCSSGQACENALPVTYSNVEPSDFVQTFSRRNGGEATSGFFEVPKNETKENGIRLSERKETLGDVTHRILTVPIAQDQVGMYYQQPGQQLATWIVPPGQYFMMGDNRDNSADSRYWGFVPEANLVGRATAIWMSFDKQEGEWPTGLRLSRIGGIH

MIC [1] | MIC (Escherichia coli [2]) | MIC (Escherichia coli [3]) | fraction unbound at 24 h, 5 µM [4] | Compound
0.011 µg/mL (≈ 0.0124 µM) | 0.12 µg/mL (≈ 0.135 µM) | 0.44 µg/mL | 0.001 | Cc1cc(-c2ccc(C(C)(C)C)cc2)ccc1C(=O)N[C@@H](CCN)C(=O)N(C)[C@@H]1C(=O)N[C@@H](C)C(=O)N[C@H](C(=O)NCC#N)Cc2ccc(OCCN)c(c2)-c2cc1ccc2OCCN
0.35 µg/mL (≈ 0.458 µM) | 31 µg/mL (≈ 40.6 µM) | 60 µg/mL | 0.59 | CCCCCCCC(=O)N[C@@H](CCN)C(=O)N(C)[C@@H]1C(=O)N[C@@H](C)C(=O)N[C@H](C(=O)NCC#N)Cc2ccc(OCCN)c(c2)-c2cc1ccc2OCCN
0.005 µg/mL (≈ 0.00554 µM) | 0.17 µg/mL (≈ 0.188 µM) | 0.34 µg/mL | – | Cc1cc(-c2ccc(C(C)(C)C)cc2)cc(C)c1C(=O)N[C@@H](CCN)C(=O)N(C)[C@@H]1C(=O)N[C@@H](C)C(=O)N[C@H](C(=O)NCC#N)Cc2ccc(OCCN)c(c2)-c2cc1ccc2OCCN
0.016 µg/mL (≈ 0.0183 µM) | 0.2 µg/mL (≈ 0.229 µM) | 2.1 µg/mL | – | CCCCc1ccc(-c2ccc(C(=O)N[C@@H](CCN)C(=O)N(C)[C@@H]3C(=O)N[C@@H](C)C(=O)N[C@H](C(=O)NCC#N)Cc4ccc(OCCN)c(c4)-c4cc3ccc4OCCN)cc2)cc1
0.007 µg/mL (≈ 0.00839 µM) | 0.23 µg/mL (≈ 0.276 µM) | 3.8 µg/mL | 0.01 | CCCCCCCCCCCCC(=O)N[C@@H](CCN)C(=O)N(C)[C@@H]1C(=O)N[C@@H](C)C(=O)N[C@H](C(=O)NCC#N)Cc2ccc(OCCN)c(c2)-c2cc1ccc2OCCN
0.01 µg/mL (≈ 0.0115 µM) | 0.83 µg/mL (≈ 0.958 µM) | 2.3 µg/mL | 0.13 | Cc1cc(-c2ccc(Cl)cc2)ccc1C(=O)N[C@@H](CCN)C(=O)N(C)[C@@H]1C(=O)N[C@@H](C)C(=O)N[C@H](C(=O)NCC#N)Cc2ccc(OCCN)c(c2)-c2cc1ccc2OCCN
0.043 µg/mL (≈ 0.0474 µM) | 0.22 µg/mL (≈ 0.242 µM) | 1.5 µg/mL | 0.017 | Cc1cc(-c2ccc(-c3ccccc3)cc2)ccc1C(=O)N[C@@H](CCN)C(=O)N(C)[C@@H]1C(=O)N[C@@H](C)C(=O)N[C@H](C(=O)NCC#N)Cc2ccc(OCCN)c(c2)-c2cc1ccc2OCCN
0.004 µg/mL (≈ 0.00449 µM) | 0.14 µg/mL (≈ 0.157 µM) | 0.2 µg/mL | 0.23 | Cc1nc(-c2ccc(C(C)(C)C)cc2)ncc1C(=O)N[C@@H](CCN)C(=O)N(C)[C@@H]1C(=O)N[C@@H](C)C(=O)N[C@H](C(=O)NCC#N)Cc2ccc(OCCN)c(c2)-c2cc1ccc2OCCN
0.008 µg/mL (≈ 0.0093 µM) | 0.31 µg/mL (≈ 0.36 µM) | 0.75 µg/mL | 0.053 | CCc1ccc(-c2ccc(C(=O)N[C@@H](CCN)C(=O)N(C)[C@@H]3C(=O)N[C@@H](C)C(=O)N[C@H](C(=O)NCC#N)Cc4ccc(OCCN)c(c4)-c4cc3ccc4OCCN)c(C)c2)cc1
0.006 µg/mL (≈ 0.00676 µM) | 0.08 µg/mL (≈ 0.0901 µM) | 0.83 µg/mL | 0.001 | Cc1cc(-c2ccc(CC(C)C)cc2)ccc1C(=O)N[C@@H](CCN)C(=O)N(C)[C@@H]1C(=O)N[C@@H](C)C(=O)N[C@H](C(=O)NCC#N)Cc2ccc(OCCN)c(c2)-c2cc1ccc2OCCN
0.1 µg/mL (≈ 0.126 µM) | 15 µg/mL (≈ 18.9 µM) | 51 µg/mL | – | CCCCCCCCCC(=O)N[C@@H](CCN)C(=O)N(C)[C@@H]1C(=O)N[C@@H](C)C(=O)N[C@H](C(=O)NCC#N)Cc2ccc(OCCN)c(c2)-c2cc1ccc2OCCN
0.004 µg/mL (≈ 0.0045 µM) | 0.12 µg/mL (≈ 0.135 µM) | 0.12 µg/mL | – | Cc1nc(-c2ccc(C(C)(C)C)cc2)ccc1C(=O)N[C@@H](CCN)C(=O)N(C)[C@@H]1C(=O)N[C@@H](C)C(=O)N[C@H](C(=O)NCC#N)Cc2ccc(OCCN)c(c2)-c2cc1ccc2OCCN
0.014 µg/mL (≈ 0.0165 µM) | 0.24 µg/mL (≈ 0.283 µM) | 3.8 µg/mL | – | CCCCCCCCCCCCCC(=O)N[C@@H](CCN)C(=O)N(C)[C@@H]1C(=O)N[C@@H](C)C(=O)N[C@H](C(=O)NCC#N)Cc2ccc(OCCN)c(c2)-c2cc1ccc2OCCN
0.003 µg/mL (≈ 0.00332 µM) | 0.13 µg/mL (≈ 0.144 µM) | 0.17 µg/mL | 0.22 | Cc1nc(-c2ccc(C(C)(C)C)cc2)nc(C)c1C(=O)N[C@@H](CCN)C(=O)N(C)[C@@H]1C(=O)N[C@@H](C)C(=O)N[C@H](C(=O)NCC#N)Cc2ccc(OCCN)c(c2)-c2cc1ccc2OCCN
0.005 µg/mL (≈ 0.00552 µM) | 0.11 µg/mL (≈ 0.122 µM) | 0.11 µg/mL | 0.12 | Cc1nc(-c2ccc(C(C)(C)C)cc2)nc(N)c1C(=O)N[C@@H](CCN)C(=O)N(C)[C@@H]1C(=O)N[C@@H](C)C(=O)N[C@H](C(=O)NCC#N)Cc2ccc(OCCN)c(c2)-c2cc1ccc2OCCN
0.023 µg/mL (≈ 0.0276 µM) | 3 µg/mL (≈ 3.61 µM) | 2 µg/mL | 0.34 | Cc1cc(-c2ccccc2)ccc1C(=O)N[C@@H](CCN)C(=O)N(C)[C@@H]1C(=O)N[C@@H](C)C(=O)N[C@H](C(=O)NCC#N)Cc2ccc(OCCN)c(c2)-c2cc1ccc2OCCN

MIC [1] | MIC (Escherichia coli [2]) | MIC (Escherichia coli [3]) | fraction unbound at 24 h, 5 µM [4] | Compound
0.007 µg/mL (≈ 0.00773 µM) | 0.34 µg/mL (≈ 0.376 µM) | 0.68 µg/mL | – | CNc1nc(-c2ccc(C(C)(C)C)cc2)ncc1C(=O)N[C@@H](CCN)C(=O)N(C)[C@@H]1C(=O)N[C@@H](C)C(=O)N[C@H](C(=O)NCC#N)Cc2ccc(OCCN)c(c2)-c2cc1ccc2OCCN
0.011 µg/mL (≈ 0.0124 µM) | 0.45 µg/mL (≈ 0.506 µM) | 0.89 µg/mL | 0.063 | C[C@@H]1NC(=O)[C@@H](N(C)C(=O)[C@H](CCN)NC(=O)c2ccc(-c3ccc(C(C)(C)C)cc3)nc2N)c2ccc(OCCN)c(c2)-c2cc(ccc2OCCN)C[C@@H](C(=O)NCC#N)NC1=O
0.007 µg/mL (≈ 0.00774 µM) | 0.23 µg/mL (≈ 0.254 µM) | 0.45 µg/mL | 0.058 | Cc1cc(-c2ccc(C(C)(C)C)cc2)nc(N)c1C(=O)N[C@@H](CCN)C(=O)N(C)[C@@H]1C(=O)N[C@@H](C)C(=O)N[C@H](C(=O)NCC#N)Cc2ccc(OCCN)c(c2)-c2cc1ccc2OCCN
0.004 µg/mL (≈ 0.00443 µM) | 0.18 µg/mL (≈ 0.199 µM) | 0.12 µg/mL | 0.083 | Cc1cc(-c2ccc(C(C)(C)C)cc2)nc(C)c1C(=O)N[C@@H](CCN)C(=O)N(C)[C@@H]1C(=O)N[C@@H](C)C(=O)N[C@H](C(=O)NCC#N)Cc2ccc(OCCN)c(c2)-c2cc1ccc2OCCN
0.014 µg/mL (≈ 0.0156 µM) | 0.41 µg/mL (≈ 0.456 µM) | 1.4 µg/mL | 0.078 | Cc1cc(-c2ccc(C(F)(F)F)cc2)ccc1C(=O)N[C@@H](CCN)C(=O)N(C)[C@@H]1C(=O)N[C@@H](C)C(=O)N[C@H](C(=O)NCC#N)Cc2ccc(OCCN)c(c2)-c2cc1ccc2OCCN
0.015 µg/mL (≈ 0.0169 µM) | 0.18 µg/mL (≈ 0.203 µM) | 3.8 µg/mL | – | CC(C)CCc1ccc(-c2ccc(C(=O)N[C@@H](CCN)C(=O)N(C)[C@@H]3C(=O)N[C@@H](C)C(=O)N[C@H](C(=O)NCC#N)Cc4ccc(OCCN)c(c4)-c4cc3ccc4OCCN)cc2)cc1
0.023 µg/mL (≈ 0.0285 µM) | 3.8 µg/mL (≈ 4.71 µM) | 15 µg/mL | 0.09 | CCCCCCCCCCC(=O)N[C@@H](CCN)C(=O)N(C)[C@@H]1C(=O)N[C@@H](C)C(=O)N[C@H](C(=O)NCC#N)Cc2ccc(OCCN)c(c2)-c2cc1ccc2OCCN
0.007 µg/mL (≈ 0.00774 µM) | 0.12 µg/mL (≈ 0.133 µM) | 0.08 µg/mL | – | Cc1nc(-c2ccc(C(C)(C)C)cc2)cc(N)c1C(=O)N[C@@H](CCN)C(=O)N(C)[C@@H]1C(=O)N[C@@H](C)C(=O)N[C@H](C(=O)NCC#N)Cc2ccc(OCCN)c(c2)-c2cc1ccc2OCCN
0.12 µg/mL (≈ 0.154 µM) | 23 µg/mL (≈ 29.6 µM) | 61 µg/mL | – | CCCCCCCCC(=O)N[C@@H](CCN)C(=O)N(C)[C@@H]1C(=O)N[C@@H](C)C(=O)N[C@H](C(=O)NCC#N)Cc2ccc(OCCN)c(c2)-c2cc1ccc2OCCN
0.021 µg/mL (≈ 0.0232 µM) | 0.34 µg/mL (≈ 0.376 µM) | 0.12 µg/mL | – | Cc1nc(-c2ccc(C(C)(C)C)cc2)c(N)cc1C(=O)N[C@@H](CCN)C(=O)N(C)[C@@H]1C(=O)N[C@@H](C)C(=O)N[C@H](C(=O)NCC#N)Cc2ccc(OCCN)c(c2)-c2cc1ccc2OCCN
0.004 µg/mL (≈ 0.0045 µM) | 0.12 µg/mL (≈ 0.135 µM) | 0.24 µg/mL | 0.11 | Cc1cc(-c2ccc(C(C)(C)C)cc2)ncc1C(=O)N[C@@H](CCN)C(=O)N(C)[C@@H]1C(=O)N[C@@H](C)C(=O)N[C@H](C(=O)NCC#N)Cc2ccc(OCCN)c(c2)-c2cc1ccc2OCCN
0.007 µg/mL (≈ 0.00801 µM) | 0.15 µg/mL (≈ 0.172 µM) | 0.96 µg/mL | 0.086 | Cc1cc(-c2ccc(C(C)C)cc2)ccc1C(=O)N[C@@H](CCN)C(=O)N(C)[C@@H]1C(=O)N[C@@H](C)C(=O)N[C@H](C(=O)NCC#N)Cc2ccc(OCCN)c(c2)-c2cc1ccc2OCCN
0.022 µg/mL (≈ 0.0258 µM) | 1.5 µg/mL (≈ 1.76 µM) | 3.8 µg/mL | 0.2 | C[C@@H]1NC(=O)[C@@H](N(C)C(=O)[C@H](CCN)NC(=O)c2ccc(-c3ccc(Cl)cc3)cc2)c2ccc(OCCN)c(c2)-c2cc(ccc2OCCN)C[C@@H](C(=O)NCC#N)NC1=O
0.007 µg/mL (≈ 0.00854 µM) | 0.98 µg/mL (≈ 1.2 µM) | 7.5 µg/mL | 0.03 | CCCCCCCCCCCC(=O)N[C@@H](CCN)C(=O)N(C)[C@@H]1C(=O)N[C@@H](C)C(=O)N[C@H](C(=O)NCC#N)Cc2ccc(OCCN)c(c2)-c2cc1ccc2OCCN
0.011 µg/mL (≈ 0.0124 µM) | 0.22 µg/mL (≈ 0.247 µM) | 0.34 µg/mL | – | C[C@@H]1NC(=O)[C@@H](N(C)C(=O)[C@H](CCN)NC(=O)c2cnc(-c3ccc(C(C)(C)C)cc3)cc2N)c2ccc(OCCN)c(c2)-c2cc(ccc2OCCN)C[C@@H](C(=O)NCC#N)NC1=O
